Laboratory results as given in publication PMC6270420, “Antibacterial Activity of Salicylanilide 4-(Trifluoromethyl)benzoates” (Molecules, 2013).
Converted amounts (≈) assume the structure as drawn. Read-outs that look alike come from different tables or passages of the source.

Legend:
Mtb. 9449/2006 = assay: microbe, parasite or virus in culture; assay type: cell-based; details: Mycobacterium tuberculosis, read-out: MIC Mtb. 9449/2006
Mtb. 53/2009 = assay: microbe, parasite or virus in culture; assay type: cell-based; details: Mycobacterium tuberculosis, read-out: MIC Mtb. 53/2009
[1] = target: T1, mycobacterial isocitrate lyase (ICL1, Rv0467) (Mycobacterium tuberculosis, UniProt P9WKK7); assay: Isocitrate lyase inhibition assay (ICL1); assay type: biochemical, Mycobacterium tuberculosis H37Rv; details: 10 μmol/L; read-out: % ICL inhibition at 10 μmol/L (± standard deviation)
T1 construct: His tag (from pET-28b(+)); made in house; host or cells: E. coli BL21(DE3), pET-28b(+) plasmid
T1 sequence (P9WKK7 1-428): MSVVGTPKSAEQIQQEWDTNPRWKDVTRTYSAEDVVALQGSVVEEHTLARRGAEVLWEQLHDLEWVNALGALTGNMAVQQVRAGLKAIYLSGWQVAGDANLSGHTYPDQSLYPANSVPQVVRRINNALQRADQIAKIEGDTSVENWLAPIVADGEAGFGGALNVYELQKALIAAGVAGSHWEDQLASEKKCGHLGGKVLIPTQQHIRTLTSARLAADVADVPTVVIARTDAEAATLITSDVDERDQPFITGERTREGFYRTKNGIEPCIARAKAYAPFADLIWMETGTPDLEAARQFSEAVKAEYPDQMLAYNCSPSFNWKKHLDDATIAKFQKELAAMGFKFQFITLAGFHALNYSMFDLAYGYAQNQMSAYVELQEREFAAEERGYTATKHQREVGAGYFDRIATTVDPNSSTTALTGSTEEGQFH

[2] = system: Enterococcus sp. J 14365/08; assay: Antibacterial microdilution broth method; assay type: cell-based; details: read-out: MIC/IC90 Enterococcus sp. J 14365/08
Procedure, shortened: (§1)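 Broth microdilution modified from M07-A07 in Mueller-Hinton broth at pH 7.4, with compounds in DMSO at final concentrations of 500 to 0.49 […] and inoculum matched to 0.5 McFarland. MIC is the lowest concentration giving at least 90% growth reduction versus control, read visually and at 540 nm after 24 and 48 h at 35 °C.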

[3] = system: Escherichia coli CCM 4517; assay: Antibacterial microdilution broth method; assay type: cell-based; details: read-out: MIC/IC90 E. coli CCM 4517
Procedure, shortened: as §1

[4] = system: Staphylococcus aureus CCM 4516/08; assay: Antibacterial microdilution broth method; assay type: cell-based; details: read-out: MIC/IC90 S. aureus CCM 4516/08
Procedure, shortened: as §1

[5] = system: Staphylococcus epidermidis H 6966/08; assay: Antibacterial microdilution broth method; assay type: cell-based; details: read-out: MIC/IC90 S. epidermidis H 6966/08
Procedure, shortened: as §1

[6] = system: methicillin-resistant Staphylococcus aureus H 5996/08 (MRSA); assay: Antibacterial microdilution broth method; assay type: cell-based; details: read-out: MIC/IC90 MRSA H 5996/08
Procedure, shortened: as §1

HepG2 cells = assay: Cytotoxicity evaluation (CellTiter 96 MTS); assay type: cell-based, human; details: Homo sapiens, HepG2, 24 h, read-out: IC50 HepG2
Procedure, shortened: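 Human HepG2 cells (passages 21–24) seeded 1 × 10^4/well, treated next day with 0.01–20 µM compound (4-(trifluoromethyl)benzoic acid 10–4,000 µM), triplicates, 24 h at 37 °C. MTS reduction read at 490 nm after 2 h; IC50 = concentration cutting viability to 50% of control.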

Row | SMILES | MIC (Mtb. 9449/2006; 336 h) | MIC (Mtb. 9449/2006; 504 h) | MIC (Mtb. 53/2009; 336 h) | MIC (Mtb. 53/2009; 504 h) | inhibition at 10 µM [1] | MIC ([2]; SP.J14365/08, 24 h) | MIC ([2]; SP.J14365/08, 48 h) | MIC ([3]; CCM4517, 24 h) | MIC ([3]; CCM4517, 48 h) | MIC ([4]; CCM4516, 24 h) | MIC ([4]; CCM4516, 48 h) | MIC ([5]; H6966/08, 24 h) | MIC ([5]; H6966/08, 48 h) | MIC ([6]; 24 h) | MIC ([6]; 48 h) | IC50 (HepG2 cells)
1 | O=C(Oc1ccc(Cl)cc1C(=O)Nc1ccc(Cl)c(Cl)c1)c1ccc(C(F)(F)F)cc1 [1e] | 2 µM (≈ 0.977 µg/mL) | 2 µM (≈ 0.977 µg/mL) | 2 µM (≈ 0.977 µg/mL) | 4 µM (≈ 1.95 µg/mL) | 18 ± 1.5% | 0.49 µM (≈ 0.239 µg/mL) | 3.9 µM (≈ 1.91 µg/mL) | > 500 µM | > 500 µM | 0.49 µM (≈ 0.239 µg/mL) | 0.98 µM (≈ 0.479 µg/mL) | 0.49 µM (≈ 0.239 µg/mL) | 0.98 µM (≈ 0.479 µg/mL) | 0.49 µM (≈ 0.239 µg/mL) | 0.98 µM (≈ 0.479 µg/mL) | 3.13 µM
2 | O=C(Oc1cc(Cl)ccc1C(=O)Nc1ccc(Br)cc1)c1ccc(C(F)(F)F)cc1 [1j] | 2 µM (≈ 0.997 µg/mL) | 2 µM (≈ 0.997 µg/mL) | 2 µM (≈ 0.997 µg/mL) | 2 µM (≈ 0.997 µg/mL) | 14 ± 4% | 1.95 µM (≈ 0.972 µg/mL) | 7.81 µM (≈ 3.89 µg/mL) | 250 µM (≈ 125 µg/mL) | > 250 µM | 0.49 µM (≈ 0.244 µg/mL) | 0.98 µM (≈ 0.489 µg/mL) | 0.49 µM (≈ 0.244 µg/mL) | 0.98 µM (≈ 0.489 µg/mL) | 0.49 µM (≈ 0.244 µg/mL) | 0.98 µM (≈ 0.489 µg/mL) | 4.82 µM
3 | O=C(Oc1ccc(Cl)cc1C(=O)Nc1ccc(C(F)(F)F)cc1)c1ccc(C(F)(F)F)cc1 [1o, 4-chloro-2-[4-(trifluoromethyl)phenylcarbamoyl]phenyl 4-(trifluoromethyl)benzoate] | 1 µM (≈ 0.488 µg/mL) | 1 µM (≈ 0.488 µg/mL) | 1 µM (≈ 0.488 µg/mL) | 1 µM (≈ 0.488 µg/mL) | 13 ± 1.2% | 7.81 µM (≈ 3.81 µg/mL) | 62.5 µM (≈ 30.5 µg/mL) | > 125 µM | > 125 µM | 3.9 µM (≈ 1.9 µg/mL) | 7.81 µM (≈ 3.81 µg/mL) | 3.9 µM (≈ 1.9 µg/mL) | 7.81 µM (≈ 3.81 µg/mL) | 3.9 µM (≈ 1.9 µg/mL) | 7.81 µM (≈ 3.81 µg/mL) | 1.33 µM
